Values of other authors in US20090110724A1, “COMPOSITIONS AND METHODS FOR TREATMENT OF PAIN” (Everett Laboratories, Inc., priority 2007, published 2009).

Assays:
[1] = cold water
COX-3 = conditions: Simmons et al. 2002

C=CCC1(CC(C)C)C(=O)NC(=O)NC1=O [Butalbital, 5-allyl-5-isobutylbarbituric acid]
solubility [1]: slightly soluble

CC(=O)Nc1ccc(O)cc1 [acetaminophen, N-(4-hydroxyphenyl)acetamide]
inhibition of COX-3 (COX-3): strong inhibition
